The values below come from EP4722219A1 (Gan & Lee Pharmaceuticals Co., Ltd., priority 2023, dated 2024).

Holding throughout (assay type): cell-based
One assay relates to LNCaP cells. The assay is described as follows: Inhibition of LNCaP cell proliferation (WST-8). The conditions noted are these: Homo sapiens, LNCaP FGC cells, 96 hours. As for the experimental part:
The inhibitory activity of compounds disclosed in the present invention on LNCaP cell proliferation
The cells were cultured overnight in a 37°C, 5% CO2 cell incubator. […] The final concentration of the compound was 9 concentration points of 5-fold serial dilution starting from 10 µM. […] The cells were cultured in a cell culture incubator at 37°C and 5% CO2 for 96 hours. On the sixth day, the 96-well cell culture plate was removed, and 1/10 volume of WST-8 (Beytime, C0040) reagent was added to each well. The absorbance at 450 nm was detected using a microplate reader (TECAN, F50).
(In general: Tetrazolium dyes change colour on reduction, which living cells bring about.)

The target in a further assay is T1, AR protein (Homo sapiens, UniProt P10275, T878A).
T1 construct: host or cells: LNCaP FGC
T1 sequence (P10275 1-920 T878A): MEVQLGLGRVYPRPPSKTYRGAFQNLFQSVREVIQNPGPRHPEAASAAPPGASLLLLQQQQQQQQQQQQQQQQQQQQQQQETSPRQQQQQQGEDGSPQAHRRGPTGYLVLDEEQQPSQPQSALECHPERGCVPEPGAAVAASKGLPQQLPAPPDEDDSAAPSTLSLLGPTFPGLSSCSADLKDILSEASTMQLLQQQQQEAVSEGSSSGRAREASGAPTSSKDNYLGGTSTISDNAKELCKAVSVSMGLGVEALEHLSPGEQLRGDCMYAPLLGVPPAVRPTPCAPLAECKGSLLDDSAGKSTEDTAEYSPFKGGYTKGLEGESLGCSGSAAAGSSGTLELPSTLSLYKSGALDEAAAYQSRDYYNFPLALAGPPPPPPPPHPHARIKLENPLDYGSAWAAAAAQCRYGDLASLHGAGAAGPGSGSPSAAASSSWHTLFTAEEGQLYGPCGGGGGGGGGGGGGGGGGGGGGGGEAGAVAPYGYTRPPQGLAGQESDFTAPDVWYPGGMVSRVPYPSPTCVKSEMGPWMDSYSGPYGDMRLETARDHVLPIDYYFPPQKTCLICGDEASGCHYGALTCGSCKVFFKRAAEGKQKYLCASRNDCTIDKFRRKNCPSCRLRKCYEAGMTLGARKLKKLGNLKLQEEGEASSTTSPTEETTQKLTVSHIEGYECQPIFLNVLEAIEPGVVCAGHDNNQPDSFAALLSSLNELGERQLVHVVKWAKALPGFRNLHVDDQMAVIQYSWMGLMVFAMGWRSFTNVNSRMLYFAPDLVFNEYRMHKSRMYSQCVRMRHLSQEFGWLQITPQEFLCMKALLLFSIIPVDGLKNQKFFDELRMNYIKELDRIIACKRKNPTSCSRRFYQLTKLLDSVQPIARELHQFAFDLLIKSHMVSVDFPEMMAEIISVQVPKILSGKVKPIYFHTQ
Briefly: AR protein degradation in LNCaP cells (Western blot). The conditions noted are these: 8 hours; for Degradation of AR protein in LNCaP cells, 10 nM (%) / percent AR protein degradation at a fixed concentration at 0.01 µM: 10 nM; for Degradation of AR protein in LNCaP cells, 100 nM (%) / percent AR protein degradation at a fixed concentration at 0.1 µM: 100 nM. As for the experimental part: At the same time, the corresponding solvent control was set and cultured for 8 hours. After 8 hours of culture, the culture medium was removed, the cells were washed with PBS, and RIPA lysis buffer containing 1% Protease Inhibitor Cocktail was added. After lysis and centrifugation, the total protein extract was obtained, and the protein concentration in the extract was detected by BCA method. Protein electrophoresis was performed using SDS-PAGE, and then the protein was transferred to a PVDF (Millipore Sigma catalog number PSRP010R5) membrane at a constant voltage of 100V for 60 minutes. The PVDF membrane was placed in a 5% milk powder 1 ×TBST solution and blocked at room temperature for 1 hour. […] The primary antibody solution was discarded and the PVDF membrane was washed with 1×TBST for 5 minutes each time, for three times. […] The secondary antibody solution was discarded and the PVDF membrane was washed with 1 ×TBST for 5 minutes each time, for three times. A dual-color infrared laser imaging system (Licor catalog number Odyssey CLX) was used for Western membrane imaging. The Image Studio software was used to analyze the grayscale of the bands. GAPDH protein bands were also detected for each sample as the reference. The AR protein degradation rate of the compound and the positive control sample was calculated based on the grayscale of the protein bands.
In general terms: In western blotting, separated proteins are transferred to a membrane and probed.

For another assay, the system named is VCaP cells. The assay is described as follows: Inhibition of VCaP cell proliferation (WST-8). As to conditions: Homo sapiens, 168 hours. The procedure:
On the first day of the experiment, VCaP cells were seeded at a density of 15,000 cells/well in a 96-well plate using DMEM medium containing 10% fetal bovine serum, with 100µL of cell suspension per well, and cultured overnight in a cell incubator at 37°C and 5% CO2. On the second day, 100µL of the compound of the present invention and the positive control ARV-110 (source: Anaiji) prepared in culture medium at different concentrations were added to each well. The final concentration of the compound was 9 concentration points of 5-fold serial dilution starting from 10 µM. […] On the ninth day, the 96-well cell culture plate was removed and 1/10 volume of WST-8 (Beytime, C0040) reagent was added to each well. The absorbance at 450nm was measured using a microplate reader (TECAN, F50).

The term IC50 denotes the concentration needed to halve the response being measured.

On to `C[C@H]1CC2(CCN(c3ccc(N4CCC(CN5CC6(CCC7(CC6)COc6c7ccc7c6CN(C6CCC(=O)NC6=O)C7=O)C5)CC4)cc3)CC2)CN1c1ccc(C#N)c(Cl)c1` (stereo partly drawn) [A-P-6, 2-chloro-4-((3S)-8-(4-(4-((7'-(2,6-dioxopiperidin-3-yl)-6'-oxo-7',8'-dihydro-2'H,6'H-dipyrazole[azetidine-3,1'-cyclohexane-4',3'-furo[2,3-e]isoindol]-1-yl)methyl)piperidin-1-yl)phenyl)-3-methyl-2,8-diazaspiro[4.5]decan-2-yl)benzonitrile], for which the IC50 with LNCaP cells turned out to be 1.02 µM; in the assay with VCaP cells it was 0.00016 µM. In addition, the “Degradation of AR protein in LNCaP cells, 10 nM (%)” value (“Degradation … 10 nM (%)” for short) at AR protein is listed as 58%. Besides, the “Degradation of AR protein in LNCaP cells, 100 nM (%)” value (from here on “Degradation … 100 nM (%)”) on AR protein is on record as 60%.

Compound `C[C@H]1CC2(CCN(c3ccc(N4CCC(CN5CCC6(CC5)CCC5(CC6)COc6c5ccc5c6CN(C6CCC(=O)NC6=O)C5=O)CC4)cc3)CC2)CN1c1ccc(C#N)c(Cl)c1` (stereo partly drawn) [A-P-8, (S)-1'-((1-(4-(6-chloro-7-cyanospiro-spiro[tryptophan-3,4'-piperidin]-1'-yl)benzoyl)piperidin-4-yl)methyl)-N-(2,6-dioxopiperidin-3-yl)-7-fluoro-spiro[tryptophan-2,4'-pyridyl]-6-carboxamide] yielded an IC50 in the assay on LNCaP cells of 0.2 µM. Besides, at AR protein, the percent AR protein degradation at a fixed concentration at 0.01 µM is -4% and the percent AR protein degradation at a fixed concentration at 0.1 µM stood at 63%. In the assay on VCaP cells, this compound displayed an IC50 of 0.005 µM.

Compound `N#Cc1cc2c(cc1Cl)OCC1(CCN(C(=O)c3ccc(N4CCC(CN5CCC6(CCc7cc(C(=O)N[C@H]8CCC(=O)NC8=O)c(F)cc7O6)CC5)CC4)cc3)CC1)O2` [A-P-44, (S)-1'-((1-(4-(6-chloro-7-cyano-3H-spiro[benzo[b][1,4]dioxane-2,4'-piperidin]-1'-carbonyl)phenyl)piperidin-4-yl)methyl)-N-(2,6-dioxopiperidin-3-yl)-7-fluorospiro[chroman-2,4'-piperidin]-6-carboxamide] returned an IC50 in the assay on LNCaP cells of 0.24 µM. Also, on AR protein, the percent AR protein degradation at a fixed concentration at 0.01 µM was determined as 20% and the percent AR protein degradation at a fixed concentration at 0.1 µM stood at 9%. The compound also returned a half-inhibitory concentration (IC50) in the assay on VCaP cells of 2.89 µM.

For `N#Cc1cc2c(cc1Cl)OC1(CCN(c3ccc(C(=O)N4CCC(CN5CCC6(CCc7cc(C(=O)N[C@H]8CCC(=O)NC8=O)c(F)cc7O6)CC5)CC4)cc3)CC1)CO2` [A-P-46, (S)-1'-((1-(4-(7-chloro-6-cyano-3H-spiro[benzo[b][1,4]dioxo-2,4'-piperidin]-1'-yl)benzoyl)piperidin-4-yl)methyl)-N-(2,6-dioxopiperidin-3-yl)-7-fluorospiro[chroman-2,4'-piperidin]-6-carboxamide], inhibition in the assay on LNCaP cells was half-maximal at 0.89 µM (IC50). In addition, at AR protein, the percent AR protein degradation at a fixed concentration at 0.01 µM turned out to be 4% and the percent AR protein degradation at a fixed concentration at 0.1 µM worked out at 15%. The same compound had an IC50 in the assay on VCaP cells of 3.75 µM.

The compound `N#Cc1cc2c(cc1Cl)CC1(CCN(c3ccc(C(=O)N4CCC(CN5CCC6(CCc7cc(C(=O)N[C@H]8CCC(=O)NC8=O)c(F)cc7O6)CC5)CC4)cc3)CC1)CO2` [A-P-51] yielded an IC50 in the assay on LNCaP cells of 3.36 µM. Moreover, on AR protein, the percent AR protein degradation at a fixed concentration at 0.01 µM was -23% and the percent AR protein degradation at a fixed concentration at 0.1 µM came out at 12%. For the same compound, the IC50 with VCaP cells was found to be 8.44 µM.

As for `N#Cc1cc2c(cc1Cl)OC1(CCN(C(=O)c3ccc(N4CCC(CN5CCC6(CCc7cc(C(=O)N[C@H]8CCC(=O)NC8=O)c(F)cc7O6)CC5)CC4)cc3)CC1)CO2` [A-P-53, (S)-1'-((1-(4-(7-chloro-6-cyano-3H-spiro[benzo[b][1,4]dioxane-2,4'-piperidin]-1'-carbonyl)phenyl)piperidin-4-yl)methyl)-N-(2,6-dioxopiperidin-3-yl)-7-fluorospiro[chroman-2,4'-piperidin]-6-carboxamide], the IC50 was determined as 0.14 µM with LNCaP cells and 1.32 µM in the assay on VCaP cells. Further, the percent AR protein degradation at a fixed concentration at 0.01 µM at AR protein was -11%. In addition, the percent AR protein degradation at a fixed concentration at 0.1 µM on AR protein is -3%.

Consider `COc1cc2c(cc1C(=O)N[C@H]1CCC(=O)NC1=O)CCC1(CCN(CC3CCN(c4ccc(N5CCC6(CC5)C[C@H](C)N(c5ccc(C#N)c(Cl)c5)C6)cc4)CC3)CC1)O2` [A-P-54], for which the half-maximal inhibitory concentration (IC50) in the assay with LNCaP cells was 0.91 µM. At AR protein, the “Degradation … 10 nM (%)” value is reported as 40% and the “Degradation … 100 nM (%)” value was 74%. Further, the IC50 in the assay with VCaP cells is 0.007 µM.

Compound `CC1(CN2CCC3(CCc4cc(C(=O)N[C@H]5CCC(=O)NC5=O)c(F)cc4O3)CC2)CCN(c2ccc(C(=O)N[C@H]3C(C)(C)[C@H](Oc4ccc(C#N)c(Cl)c4)C3(C)C)cc2)CC1` [A-P-55] gave an IC50 in the assay with LNCaP cells of 0.95 µM. Also, on AR protein, the “Degradation … 10 nM (%)” value was -15% and the “Degradation … 100 nM (%)” value came to 15%. Also, the half-inhibitory concentration (IC50) in the assay with VCaP cells amounted to 1.05 µM.

In the assay with LNCaP cells, `C[C@H]1CC2(CCN(c3ccc(N4CCC(CN5CCN6c7ccc(C(=O)N[C@H]8CCC(=O)NC8=O)c(F)c7OC[C@H]6C5)CC4)cc3)CC2)CN1c1ccc(C#N)c(Cl)c1` [A-P-61, (R)-3-((1-(4-((S)-2-(3-chloro-4-cyanophenyl)-3-methyl-2,8-diazaspiro[4.5]decan-8-yl)phenyl)piperidin-4-yl)methyl)-N-((S)-2,6-dioxopiperidin-3-yl)-7-fluoro-1,2,3,4,4a,5-hexahydrobenzo[b]pyrazi no[1,2-d][1,4]oxazine-8-carboxamide] displayed a half-maximal inhibitory concentration (IC50) of 0.21 µM. Further, on AR protein, the percent AR protein degradation at a fixed concentration at 0.01 µM was determined as 24% and the percent AR protein degradation at a fixed concentration at 0.1 µM amounted to 79%. For the same compound, the IC50 in the assay with VCaP cells came to 0.19 µM.

Regarding `C[C@H]1CC2(CCN(c3ccc(C(=O)N4CCC(CN5CCN6c7ccc(C(=O)N[C@H]8CCC(=O)NC8=O)c(F)c7OC[C@H]6C5)CC4)cc3)CC2)CN1c1ccc(C#N)c(Cl)c1` [A-P-62, (R)-3-((1-(4-((S)-2-(3-chloro-4-cyanophenyl)-3-methyl-2,8-diazaspiro[4.5]decan-8-yl)benzoyl)piperidin-4-yl)methyl)-N-((S)-2,6-dioxopiperidin-3-yl)-7-fluoro-1,2,3,4,4a,5-hexahydrobenzo[b]pyrazi no[1,2-d][1,4]oxazine-8-carboxamide], in the assay on LNCaP cells, half-maximal inhibition (IC50) required 9.54 µM. Besides, on AR protein, the percent AR protein degradation at a fixed concentration at 0.01 µM stood at 47% and the percent AR protein degradation at a fixed concentration at 0.1 µM amounted to 72%. The 50% inhibitory concentration (IC50) in the assay with VCaP cells is 0.45 µM.

Consider `COc1cc(O[C@H]2C(C)(C)[C@H](NC(=O)c3ccc(N4CCC(CN5CCN6c7cc(F)c(C(=O)N[C@H]8CCC(=O)NC8=O)cc7OC[C@H]6C5)CC4)cc3)C2(C)C)ccc1C#N` [A-P-63], for which the IC50 with LNCaP cells worked out at 0.24 µM. On AR protein, the “Degradation … 10 nM (%)” value stood at 27% and the “Degradation … 100 nM (%)” value stood at 68%. Also, in the assay with VCaP cells, the IC50 worked out at 0.39 µM.

In turn, `CC1(C)[C@H](NC(=O)c2ccc(N3CCC(CN4CCN5c6ccc(C(=O)N[C@H]7CCC(=O)NC7=O)cc6OC[C@H]5C4)CC3)cc2)C(C)(C)[C@H]1Oc1ccc(C#N)c(Cl)c1` [A-P-77] came in with a half-inhibitory concentration (IC50) in the assay with LNCaP cells of 0.44 µM. On AR protein, the “Degradation … 10 nM (%)” value was found to be 20% and the “Degradation … 100 nM (%)” value was 62%. Also, in the assay on VCaP cells, it took 0.0055 µM to reach half-maximal inhibition (IC50).
